Measurements reported in article PMC9925730, “Controlled sequential in situ self-assembly and disassembly of a fluorogenic cisplatin prodrug for cancer theranostics” (Nature Communications, 2023).
Where “and” joins values, the source holds several entries; their conditions need not be identical. Equal entries are not always repeated.

How the values were obtained:
[1] = molecular target: T1, ALP (Bos taurus, UniProt P19111); test: Dephosphorylated efficacy of P-CyPt towards varying concentrations of ALP (NIR fluorescence); assay type: biochemical
T1 construct: Alkaline phosphatase from bovine; purchased Sigma-Aldrich; host or cells: bovine intestinal mucosa (tissue-derived)

[2] = system: ALP; test: as above; assay type: biochemical; conditions: ALP 0 U/L

T1 sequence (P19111 20-533): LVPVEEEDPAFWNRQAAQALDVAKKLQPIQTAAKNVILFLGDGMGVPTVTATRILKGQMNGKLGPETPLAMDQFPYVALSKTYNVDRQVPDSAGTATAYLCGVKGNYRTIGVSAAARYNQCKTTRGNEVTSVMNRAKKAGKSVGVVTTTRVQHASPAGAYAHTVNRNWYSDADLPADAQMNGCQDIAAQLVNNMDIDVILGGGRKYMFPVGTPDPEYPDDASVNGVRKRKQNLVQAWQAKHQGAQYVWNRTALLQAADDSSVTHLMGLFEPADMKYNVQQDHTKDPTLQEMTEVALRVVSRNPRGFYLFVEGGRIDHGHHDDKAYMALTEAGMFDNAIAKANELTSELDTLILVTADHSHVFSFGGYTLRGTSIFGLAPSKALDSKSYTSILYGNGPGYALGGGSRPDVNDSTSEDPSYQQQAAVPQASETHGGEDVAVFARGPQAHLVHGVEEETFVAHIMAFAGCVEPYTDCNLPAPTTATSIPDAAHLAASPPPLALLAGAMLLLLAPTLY

Q: What does the source list for `CC1(C)C(/C=C/C2=C3Oc4cc(OP(=O)(O)O)c(Cl)cc4C=C3CCC2)=[N+](CCCNC(=O)[C@@H](Cc2ccccc2)NC(=O)[C@@H](Cc2ccccc2)NC(=O)CCC(=O)[O][Pt]([NH2])([NH2])([OH])([Cl])[Cl])c2ccccc21` [P-CyPt]?
A: Normalized FL intensity ([1]; ALP 5 U/L, 10 min, mean of 3 samples): 1.71; Normalized FL intensity ([1]; ALP 5 U/L, 10 min, single samples): 1.648 and 1.73 and 1.752; Normalized FL intensity ([1]; ALP 5 U/L, 12 min, mean of 3 samples): 1.864; Normalized FL intensity ([1]; ALP 5 U/L, 12 min, single samples): 1.757 and 1.865 and 1.97; Normalized FL intensity ([1]; ALP 5 U/L, 14 min, mean of 3 samples): 1.881; Normalized FL intensity ([1]; ALP 5 U/L, 14 min, single samples): 1.813 and 1.9087 and 1.922; Normalized FL intensity ([1]; ALP 10 U/L, 10 min, mean of 3 samples): 2.116; Normalized FL intensity ([1]; ALP 10 U/L, 10 min, single samples): 2.078 and 2.183 and 2.087; Normalized FL intensity ([1]; ALP 10 U/L, 12 min, mean of 3 samples): 2.286; Normalized FL intensity ([1]; ALP 10 U/L, 12 min, single samples): 2.204 and 2.296 and 2.357; Normalized FL intensity ([1]; ALP 10 U/L, 14 min, mean of 3 samples): 2.562; Normalized FL intensity ([1]; ALP 10 U/L, 14 min, single samples): 2.47 and 2.6 and 2.617; Normalized FL intensity ([1]; ALP 10 U/L, 16 min, mean of 3 samples): 2.829; Normalized FL intensity ([1]; ALP 10 U/L, 16 min, single samples): 2.713 and 2.865 and 2.9087; Normalized FL intensity ([1]; ALP 20 U/L, 10 min, mean of 3 samples): 2.617; Normalized FL intensity ([1]; ALP 20 U/L, 10 min, single samples): 2.53 and 2.596 and 2.726; Normalized FL intensity ([1]; ALP 20 U/L, 12 min, mean of 3 samples): 2.996; Normalized FL intensity ([1]; ALP 20 U/L, 12 min, single samples): 2.926 and 2.987 and 3.074; Normalized FL intensity ([1]; ALP 20 U/L, 14 min, mean of 3 samples): 3.404; Normalized FL intensity ([1]; ALP 20 U/L, 14 min, single samples): 3.322 and 3.383 and 3.5087; Normalized FL intensity ([1]; ALP 20 U/L, 16 min, mean of 3 samples): 3.783; Normalized FL intensity ([1]; ALP 20 U/L, 16 min, single samples): 3.7 and 3.73 and 3.917; Normalized FL intensity ([1]; ALP 50 U/L, 10 min, mean of 3 samples): 3.187; Normalized FL intensity ([1]; ALP 50 U/L, 10 min, single samples): 3.135 and 3.157 and 3.27; Normalized FL intensity ([1]; ALP 50 U/L, 12 min, mean of 3 samples): 3.6029; Normalized FL intensity ([1]; ALP 50 U/L, 12 min, single samples): 3.483 and 3.583 and 3.743; Normalized FL intensity ([1]; ALP 50 U/L, 14 min, mean of 3 samples): 4.096; Normalized FL intensity ([1]; ALP 50 U/L, 14 min, single samples): 3.9913 and 4.022 and 4.274; Normalized FL intensity ([1]; ALP 50 U/L, 16 min, mean of 3 samples): 4.5913; Normalized FL intensity ([1]; ALP 50 U/L, 16 min, single samples): 4.43 and 4.465 and 4.878; Normalized FL intensity ([1]; ALP 100 U/L, 10 min, mean of 3 samples): 4.5971; Normalized FL intensity ([1]; ALP 100 U/L, 10 min, single samples): 4.522 and 4.557 and 4.713; Normalized FL intensity ([1]; ALP 100 U/L, 12 min, mean of 3 samples): 5.171; Normalized FL intensity ([1]; ALP 100 U/L, 12 min, single samples): 4.861 and 5.296 and 5.357; Normalized FL intensity ([1]; ALP 100 U/L, 14 min, mean of 3 samples): 5.964; Normalized FL intensity ([1]; ALP 100 U/L, 14 min, single samples): 5.887 and 5.948 and 6.057; Normalized FL intensity ([1]; ALP 100 U/L, 16 min, mean of 3 samples): 6.53; Normalized FL intensity ([1]; ALP 100 U/L, 16 min, single samples): 6.426 and 6.513 and 6.652; Normalized FL intensity ([1]; ALP 200 U/L, 10 min, mean of 3 samples): 5.588; Normalized FL intensity ([1]; ALP 200 U/L, 10 min, single samples): 5.343 and 5.613 and 5.8087; Normalized FL intensity ([1]; ALP 200 U/L, 12 min, mean of 3 samples): 6.483; Normalized FL intensity ([1]; ALP 200 U/L, 12 min, single samples): 6.217 and 6.557 and 6.674; Normalized FL intensity ([1]; ALP 200 U/L, 14 min, mean of 3 samples): 6.862; Normalized FL intensity ([1]; ALP 200 U/L, 14 min, single samples): 6.857 and 6.626 and 7.104; Normalized FL intensity ([1]; ALP 500 U/L, 10 min, mean of 3 samples): 6.133; Normalized FL intensity ([1]; ALP 500 U/L, 10 min, single samples): 5.804 and 6.287 and 6.3087; Normalized FL intensity ([1]; ALP 500 U/L, 12 min, mean of 3 samples): 6.81; Normalized FL intensity ([1]; ALP 500 U/L, 12 min, single samples): 6.661 and 6.722 and 7.048; Normalized FL intensity ([1]; ALP 500 U/L, 14 min, mean of 3 samples): 7.207; Normalized FL intensity ([1]; ALP 500 U/L, 14 min, single samples): 6.848 and 7.161 and 7.613; Normalized FL intensity ([2]; 0 min, mean of 3 samples): 1.022; Normalized FL intensity ([2]; 0 min, single samples): 0.9783 and 1.039 and 1.048; Normalized FL intensity ([2]; 2 min, mean of 3 samples): 1.026; Normalized FL intensity ([2]; 2 min, single samples): 0.9783 and 1.057 and 1.043; Normalized FL intensity ([2]; 4 min, mean of 3 samples): 1.02; Normalized FL intensity ([2]; 4 min, single samples): 1.0087 and 1.035 and 1.017; Normalized FL intensity ([2]; 6 min, mean of 3 samples): 1.039; Normalized FL intensity ([2]; 6 min, single samples): 1.087 and 1.03 and 1; Normalized FL intensity ([2]; 8 min, mean of 3 samples): 1.032; Normalized FL intensity ([2]; 8 min, single samples): 1.087 and 1.013 and 0.9957
